# Measurements taken from patent publication US20230219964A1, “ANTIBACTERIAL AND ANTIFUNGAL PLEUROMUTILIN CONJUGATES” (SYDDANSK UNIVERSITET, priority 2020, published 2023).
# Read-outs that look alike come from different tables or passages of the source.
# Experiments:
# [1] = system: Multi-resistant Staphylococcus aureus (MRSA) USA300 cells; test: MIC in vitro broth micro-dilution assay, MRSA USA300; assay type: cell-based; details: for MIC: Staphylococcus aureus
# Procedure: (§1) Bacterial susceptibility was established through an in vitro cell-based broth micro-dilution assay. To produce accurate and reproducible MIC-values, a procedure was used which follows the guidelines set by the Clinical and Laboratory Standards Institute (CLSI, USA) and the European Committee on Antimicrobial Susceptibility Testing (EUCAST). The micro-dilutions were carried out in 96-well plates, according to FIG. 3, wherein column 1 is a growth control, Columns 2 to 11 are dilutions of 1×, 2×, 4×, 8×, 16×, 32×, 64×, 128×, 256×, 512× respectively, and column 12 is a sterile control. To further increase the reliability of each susceptibility test, inoculation involved the use of three independent overnight cultures (ON1-ON3) thus giving rise to […]. Furthermore, each ON was added to two individual dilution rows, giving rise to […]. The standard inoculum was set to ˜5-10^5 colony-forming units (CFU) mL^−1. This was verified by dilution onto agar plates after each overall run.
# (§2) The applied procedure was:
# (§3) 1.1 MH or BHI agar plates for dilutions were created, 1 plate per overnight (ON) culture and MH or BHI media. 1.2 Day 1: Preparation of ON cultures of the bacterial strain in question, by inoculation of a single colony in 5 mL of MH or BHI media. Then incubation at 37° C. with aeration for approximately 16-20 hours. Biological triplicates were created by inoculation from 3 different colonies per strain.
# (§4) 1.3 Day 2: A 96-well plate with the antibiotic/compound in question was prepared as according to FIG. 3: 1.4 In a 15 mL falcon tube, an appropriate volume of a 1000 μg/mL antibiotic/compound DMSO stock was diluted with MH or BHI media such that a 2× concentration and total volume of 10 mL was achieved. 1.5 A multi-channel pipette was used in the following. 1.6 Column 1 was used for growth control, so no antibiotic/compound was added to that column. 1.7 200 μl of 2× concentration of the antibiotic/compound was added to column 2. Technical duplicates were always created, thus 2 columns per ON culture. 1.8 100 μl of MH or BHI media was added to columns 1, 3-11 and 200 μl of MH or BHI media to column 12. 1.9 100 μl was transferred from column 2 to column 3. The same pipetting tips were used to transfer 100 μL from column 3 to 4. This scheme was repeated until column 11 where 100 μl was discarded after re-suspending. Column 12 was used as a sterile control, so no antibiotic/compound was added to that column. Each transferring involved pipetting up and down 5 to 7 times. 1.10 The plates were fully dried for CFU in the 42° C. incubator, 4× dilutions in triplicates per one plate.
# (§5) 1.11 The optical density of bacterial cells in the ON culture was measured at wavelength 600 nm (OD600). Then the ON culture was diluted to an OD600=0.1. 1.12 Then the OD600 was re-measured to make certain that it was between 0.08 and 0.13. 1.13 The prepared 0.1 culture of 1.12 was diluted 100× more by transferring of 100 μl thereof, to 10 ml of MH or BHI media (enough for a 96-well plate). 1.14 Then 200 μl of the 100× dilution in 1.13 was transferred to Eppendorf tubes and kept cold until use. 1.15 100 μl of culture with an OD600 on approximately 0.001 was dispensed to each well of columns 1 to 11. 1.16 The plate was closed. Covered with aluminium foil and small holes were created with a 100-200 μL tip.
# (§6) 1.17 The 96-well plate was then incubated at 37° C. with agitation and left for 16-hours.
# (§7) 1.18 Verification of standard inoculum: The 100× diluted culture of 1.13 was used to create 10^−1 to 10^−4 dilutions in PBS/0.9% saline (100 μl sample to 900 μl PBS, mix well and continue until 10^−4). 1.19 10 μl of the 10^−2, 10^−3 and 10^−4 dilutions in 1.18 were spotted onto very dry MH or BHI plates in triplicates. 1.20 Then incubated overnight at 37° C. 1.21 The plates were examined manually or by using the plate reader.
# [2] = system: vancomycin-resistant enterococci (VRE) cells, VRE 5; test: MIC in vitro broth micro-dilution assay, VRE 5; assay type: cell-based; details: Enterococcus, VRE; lowest concentration to fully inhibit visible growth (OD600); clinical isolate, ampicillin, ciprofloxacin, vancomycin and linezolid resistant; read-out: in vitro susceptibility (MIC) VRE 5
# Procedure: as §1, §2, §3, §4, §5, §6, §7
# [3] = system: E. faecalis cells; test: MIC in vitro broth micro-dilution assay, E. faecalis; assay type: cell-based, Enterococcus faecalis; details: Enterococcus faecalis; lowest concentration to fully inhibit visible growth (OD600); clinical isolate; read-out: in vitro susceptibility (MIC) E. Faecalis
# Procedure: as §1, §2, §3, §4, §5, §6, §7
# [4] = system: S. pneumonia cells; test: MIC in vitro broth micro-dilution assay, S. pneumonia; assay type: cell-based, Streptococcus pneumonia; details: Streptococcus pneumoniae; lowest concentration to fully inhibit visible growth (OD600); clinical isolate; read-out: in vitro susceptibility (MIC) S. Pneumonia
# Procedure: as §1, §2, §3, §4, §5, §6, §7
# [5] = system: vancomycin-resistant enterococci (VRE) cells, VRE 1; test: MIC in vitro broth micro-dilution assay, VRE 1; assay type: cell-based; details: Enterococcus, VRE; lowest concentration to fully inhibit visible growth (OD600); clinical isolate, ampicillin, ciprofloxacin and vancomycin resistant; read-out: in vitro susceptibility (MIC) VRE 1
# Procedure: as §1, §2, §3, §4, §5, §6, §7
# [6] = lowest concentration to fully inhibit visible growth (OD600), ATCC strain, read-out: in vitro susceptibility (MIC) MRSA USA3000
Compound,"MIC [1, 6]",MIC [2],MIC [3],MIC [4],MIC [5],"in vitro susceptibility (MIC) MRSA USA3000 ([1]; lowest concentration to fully inhibit visible growth (OD600), ATCC strain, listed as drawing 80)","MIC ([1]; read-out: MIC value, MRSA USA300 cells)"
"C=C[C@]1(C)C[C@@H](OC(=O)Cn2cc(-c3cccc(Oc4ncnc5[nH]cnc45)c3)nn2)[C@]2(C)[C@H](C)CC[C@]3(CCC(=O)[C@H]32)[C@@H](C)[C@@H]1O [C16, 22-[4-(3-((9H-purin-6-yl)oxy)phenyl)-1,2,3-triazole-1-yl]-22-deoxypleuromutilin]",0.12 µg/mL,–,–,–,–,–,–
"C=C[C@]1(C)C[C@@H](OC(=O)Cn2cc(-c3ccc(Cn4cnc5c(N)ncnc54)c(OC)c3)nn2)[C@]2(C)[C@H](C)CC[C@]3(CCC(=O)[C@H]32)[C@@H](C)[C@@H]1O [C8, 22-[4-(4-((6-Amino-9H-purin-9-yl)methyl)-3-methoxyphenyl)-1H-1,2,3-triazol-1-yl]-22-deoxypleuromutilin]",0.06 µg/mL,0.12 µg/mL,0.25 µg/mL,0.25 µg/mL,0.12 µg/mL,–,–
"C=C[C@]1(C)C[C@@H](OC(=O)Cn2cc(-c3ccc(Cn4cnc5c(N)ncnc54)nc3)nn2)[C@]2(C)[C@H](C)CC[C@]3(CCC(=O)[C@H]32)[C@@H](C)[C@@H]1O [C7, 22-[4-(6-((6-Amino-9H-purin-9-yl)methyl)pyridin-3-yl)-1H-1,2,3-triazol-1-yl]-22-deoxypleuromutilin]",–,0.12 µg/mL,0.25 µg/mL,0.25 µg/mL,0.12 µg/mL,0.03 µg/mL,–
"C=C[C@]1(C)C[C@@H](OC(=O)Cn2cc(-c3ccc(Cn4cnc5c(N)nc(N)nc54)cc3)nn2)[C@]2(C)[C@H](C)CC[C@]3(CCC(=O)[C@H]32)[C@@H](C)[C@@H]1O [C6, 22-[4-(4-((2,6-Diamino-9H-purin-9-yl)methyl)phenyl)-1H-1,2,3-triazol-1-yl]-22-deoxypleuromutilin]",0.06 µg/mL,0.25 µg/mL,0.25 µg/mL,0.25 µg/mL,0.25 µg/mL,–,–
"C=C[C@]1(C)C[C@@H](OC(=O)Cn2cc(-c3ccc(Cn4cc(C)c(=O)[nH]c4=O)cc3)nn2)[C@]2(C)[C@H](C)CC[C@]3(CCC(=O)[C@H]32)[C@@H](C)[C@@H]1O [C20, 22-[4-(4-((Thymine-1-yl)methyl)phenyl)-1,2,3-triazol-1-yl]-22-deoxypleuromutilin]",0.12 µg/mL,0.5 µg/mL,1 µg/mL,1 µg/mL,0.5 µg/mL,–,–
"C=C[C@]1(C)C[C@@H](OC(=O)Cn2cc(-c3cccc(Oc4nc(N)nc5[nH]cnc45)c3)nn2)[C@]2(C)[C@H](C)CC[C@]3(CCC(=O)[C@H]32)[C@@H](C)[C@@H]1O [C17, 22-[4-(3-((2-amino-9H-purin-6-yl)oxy)phenyl)-1,2,3-triazole-1-yl]-22-deoxypleuromutilin]",0.12 µg/mL,–,–,–,–,–,–
"C=C[C@]1(C)C[C@@H](OC(=O)Cn2cc(-c3ccc(CO)cc3)nn2)[C@]2(C)[C@H](C)CC[C@]3(CCC(=O)[C@H]32)[C@@H](C)[C@@H]1O [C4, 22-[4-(4-(hydroxymethyl)phenyl)-1H-1,2,3-triazol-1-yl]-22-deoxypleuromutilin]",0.25 µg/mL,1 µg/mL,2 µg/mL,4 µg/mL,1 µg/mL,–,–
C=C[C@]1(C)C[C@@H](OC(=O)Cn2cc(-c3ccc(Cn4cnc5c(N)ncnc54)cc3)nn2)[C@]2(C)[C@H](C)CC[C@]3(CCC(=O)[C@H]32)[C@@H](C)[C@@H]1O [C1],0.03 µg/mL,0.25 µg/mL,0.25 µg/mL,0.05 µg/mL,0.25 µg/mL,–,0.03 µg/mL
"C=C[C@]1(C)C[C@@H](OC(=O)Cn2cc(-c3cc(C#N)ccc3O)nn2)[C@]2(C)[C@H](C)CC[C@]3(CCC(=O)[C@H]32)[C@@H](C)[C@@H]1O [C19, 22-[4-(5-cyano-2-hydroxyphenyl)-1H-1,2,3-triazol-1-yl]-22-deoxypleuromutilin]",0.25 µg/mL,1 µg/mL,2 µg/mL,4 µg/mL,1 µg/mL,–,–
"C=C[C@]1(C)C[C@@H](OC(=O)Cn2cc(-c3ccc([C@@H](C)n4cnc5c(N)ncnc54)cc3)nn2)[C@]2(C)[C@H](C)CC[C@]3(CCC(=O)[C@H]32)[C@@H](C)[C@@H]1O [C12, 22-[4-(4-((R)-1-(6-amino-9H-purin-9-yl)ethyl)phenyl)-1H-1,2,3-triazol-1-yl]-22-deoxypleuromutilin]",0.12 µg/mL,0.25 µg/mL,0.25 µg/mL,0.25 µg/mL,0.25 µg/mL,–,–
"C=C[C@]1(C)C[C@@H](CC(=O)Cn2cc(-c3ccc(-n4cnc5c(N)ncnc54)cc3)nn2)[C@]2(C)[C@H](C)CC[C@]3(CCC(=O)[C@H]32)[C@@H](C)[C@@H]1O [prior art compound 8, reference compound]",0.5 µg/mL,–,–,–,–,–,–
"C=C[C@]1(C)C[C@@H](CC(=O)Cn2cc(-c3cccc(-n4cnc5c(N)ncnc54)c3)nn2)[C@]2(C)[C@H](C)CC[C@]3(CCC(=O)[C@H]32)[C@@H](C)[C@@H]1O [prior art compound 7, reference compound]",0.06 µg/mL,–,–,–,–,–,–
"C=C[C@]1(C)C[C@@H](OC(=O)Cn2cc(-c3cccc(NC(=O)c4ccccc4)c3)nn2)[C@]2(C)[C@H](C)CC[C@]3(CCC(=O)[C@H]32)[C@@H](C)[C@@H]1O [C14, 22-[4-(3-benzamidophenyl)-1,2,3-triazole-1-yl]-22-deoxypleuromutilin]",0.5 µg/mL,–,–,–,–,–,–
"C=C[C@]1(C)C[C@@H](OC(=O)CSC2CC[C@@H](N)C[C@H]2O)[C@]2(C)[C@H](C)CC[C@]3(CCC(=O)[C@H]32)[C@@H](C)[C@@H]1O.CC(=O)O (stereo partly drawn) [Lefamulin.Ac, reference compound]",–,0.12 µg/mL,0.06 µg/mL,0.12 µg/mL,0.12 µg/mL,–,–
"C=C[C@]1(C)C[C@@H](OC(=O)Cn2cc(-c3ccc(Cn4cnc5c(N)nc(F)nc54)cc3)nn2)[C@]2(C)[C@H](C)CC[C@]3(CCC(=O)[C@H]32)[C@@H](C)[C@@H]1O [C5, 22-[4-(4-((6-Amino-2-fluoro-9H-purin-9-yl)methyl)phenyl)-1H-1,2,3-triazol-1-yl]-22-deoxypleuromutilin]",0.06 µg/mL,–,–,–,–,–,–
